Data: patent US5015742A, “Synthesis and elucidation of azamitosene and iminoazamitosene” (Arizona Board of Regents, priority 1990, dated 1991)
Entries after “also recorded” stand apart in the source; their conditions may differ.

How the values were obtained:
[1] = test system: fresh human ovarian tumors; experiment: Antitumor activity in fresh human ovarian tumors; format: cell-based
fresh human colon tumors = experiment: Antitumor activity in fresh human colon tumors; format: cell-based
[2] = test system: cloned human ovarian cancer cell lines; experiment: Antitumor activity in cloned human ovarian cancer cell lines; format: cell-based
[3] = test system: cloned human colon cancer cell lines; experiment: Antitumor activity in cloned human colon cancer cell lines; format: cell-based
[4] = pKa by spectrophotometric titration; format: physicochemical; settings: water, 1.0 m kcl
Experimental: pKa constants were determined by spectrophotometric titration in μ=1.0 (KCl) aerobic aqueous solvent at 30°±0.2° C. with a Cary 15 outfitted with a titration cell. Acid dissociations from hydroquinones in strong base were measured under an argon atmosphere with Thunberg cuvettes. Details of the methodoloqy employed are found in a previous publication.

[5] = Kinetics of hydrolysis and syn/anti isomerization in aqueous buffer; format: physicochemical; settings: for pKa: aqueous buffer
Source text: Iminoquinone Fate in Aqueous Buffers. […] Outlined in Scheme 4 below, are the pertinent equilibria and hydrolytic reactions of 2a in aqueous buffer. Above pH 7, the predominate reaction is equilibrium formation of a syn/anti mixture of 2a by general acid/base catalyzed processes. Much below pH 7, the predominate reaction is acid-catalyzed hydrolysis of 2a to the corresponding quinone 1a.
The studies which led to the mechanism outlined in Scheme 4 will now be described. Both hydrolysis and the equilibrium isomerization of pure syn 2a or pure anti 2a are associated with an absorbance change at 320 nm. Plots of absorbance vs time obeyed a first-order rate law over the entire pH range studied. The kobsd values were dependent on the concentration of the buffers employed to hold pH over the range of pH=3 to 9. Lyate-dependent values of kobsd (klyate) were obtained by measuring kobsd values over a 10-fold range of buffer concentration at constant pH and then extrapolating to the klyate value at zero buffer concentration.
The rate law for the reaction of pure syn 2a, based on the mechanism shown in Scheme 4 below, is provided in Equation 1: [formula] wherein: k1, k-1, k2, k3, Ka4 and Ka5 are constants found in Scheme 4 and aH is the proton activity determined with a pH electrode. The first term of equation 1 pertains to the hydrolysis of 2aH^2+ under the conditions aH <Ka5, the second term pertains to hydrolysis of 2aH and third term pertains to the syn/anti equilibration. […] Consistent with the postulated mechanism, the kinetically-obtained value of pKa4 approximates the value obtained by spectrophotometric titration (2.6±0.3).
(§1) Kinetic Studies of Hydrolysis. The hydrolytic studies of 2a and the reoxidation studies of 19 and 20 were carried out in aerobic aqueous buffer at 30.0°±0.2° C. A dimethyl sulfoxide stock of the compound to be studied was prepared fresh and 50 μl of this stock was added to 2.95 mL of buffer. In the cases of 19 and 20, the dimethyl sulfoxide stock was kept under a blanket of argon. The absorbance vs time data were obtained on a Perkin-Elmer 559 or a Lambda-3 UV-vis spectrophotometer and fit to a first-order rate law.

[6] = Two-electron reduction potentials by cyclic voltammetry and Nernst fit
Experimental: Quinone 1a and iminoquinone 2a two-electron reduction potentials were determined in anaerobic aqueous buffers (μ=1, NaClO4) at 25° C. over the pH range -1 to 10 employing conventional cyclic voltammetry. The working electrode was a graphite mull, the auxillary electrode was platinum, and the reference couple was Ag/AgCl.
The pKa values, with error limits, were determined. spectrophotometrically.
The determination of Em values was carried out with a BAS 27 voltammograph. Measurements were carried out in μ=1.0 (NaClO4) aqueous buffer at 25°-26° C. under an atmosphere of argon with a BAS Ag/AgCl gel electrode as reference. […] The midpoint potential Em was determined from the average of the anodic (Ep,a) and cathodic (Ep,c) potentials.
For each of the redox couples, 1a/20 and 2a/19, >20 Em determinations were made over the pH range studied. For each Em value of a couple, and Eo value was calculated from the Nernst equation substituted with the acid dissociation constants in Table I and the proton activity determined with a pH meter. The average of all Eo determinations was then substituted into the Nernst equation, with which the solid curve for the couple was generated.

[7] = syn/anti isomerization equilibrium (product study, thermodynamic cycles, NMR); format: physicochemical; settings: for K for syn/anti isomerization: aqueous buffer
Experimental: Below pH 7, the preparative reaction of pure syn 2a afforded a mixture of isomers; [syn 2a]/[anti 2a]=0.7 by ^1 H NMR. [drawing 5]
The K value (~1) for syn/anti isomerization of 2a in aqueous buffer was assessed from […] thermodynamic cycles and from a product study. The results of the product study indicate K=0.7. The two thermodynamic cycles shown in Scheme 4 indicate K=1 to 2. These thermodynamic cycles were constructed by considering that protonation of syn/anti 2a provides the same cationic species 2aH^+ and that acid dissociation from syn/anti 2a probably provides the same anionic species 2aH^-.
The thermoneutral syn/anti isomerization in aqueous buffer requires that the imino proton of anti 2a hydrogen bond to the nitrogen of the enolized acetamido group.
Product Isolation of syn 2a Reaction at pH 8. To a solution of 15 mg (0.058 mmol) of syn 2a in 1 mL of dimethyl sulfoxide was added 4 mL of pH 8 phosphate buffer. The reaction mixture was stirred at room temperature for 48 hours and then diluted with 10 mL of water and extracted 3× with 20 mL portions of chloroform. Concentration of the dried extracts (sodium sulfate) afforded 12 mg (80%) of a mixture of isomers: [syn/anti]=0.7 by ^1 H NMR.

[8] = Aerobic oxidation (oxygen reactivity) of reduced species in aqueous buffer; format: physicochemical
Experimental: The oxygen reactivity of 19 and 20 was studied in aerobic buffers (μ=1.0, KCl) at 30° C. Both of these species are converted to the corresponding oxidized analogues, 2a and 1a, by first-order processes. Isolation studies and UV-visible spectra of completed reactions confirmed the formation of both analogues. As expected from the relative reduction potentials, the oxidation of 19 is slow enough to be studied up to pH=11 whereas the oxidation of 20 occurs at stopped-flow rates much above neutrality.
The profile for the oxidation of 19 is consistent with oxidation of both the neutral species (19) and the monoprotonated species (19H^+), see Scheme 5, below. [drawing 11] The rate law for the mechanism in Scheme 5 is found in Equation 5. […] The solid curve of Plot B in FIG. 3 was computer generated with equation 5 using the values of the constants shown in Scheme 5. Consistent with the proposed mechanism, the kinetically-determined value of Ka is nearly the same as the value determined spectrophotometrically (9.44, entry 11 of Table I). The greater oxygen reactivity of 19, compared to 19H^+, is consistent with the decreasing Em values (i.e., decreasing stability of the reduced species) observed in the Nernst Fit (Plot B, FIG. 2) at pH values>6.
as §1

[9] = comparison or calibration value; cited from earlier work
[10] = N(4)-protonated species, 30° C., μ = 1.0 (KCl)
[11] = amide proton, 30° C., μ = 1.0 (KCl)
[12] = buffer-catalyzed syn/anti isomerization

CC(=O)OC1CCn2c1nc1c2C(=O)C(C)=C(N2CC2)C1=O (centres unmarked) [1c, 6-(N-aziridinyl)-7-methyl-2,3-dihydro-1H-pyrrolo [1,2-a]benzimidazole 5,8-dione-3-Acetate]
antitumor activity [1]: potent antitumor agents
antitumor activity (fresh human colon tumors): potent antitumor agents
antitumor activity [2]: potent antitumor agents
antitumor activity [3]: potent antitumor agents

CC1=C(N2CC2)C(=O)c2nc3n(c2C1=O)CCC3OC(N)=O (centres unmarked) [1d, 6-N-Aziridinyl-7-methyl-2,3-dihydro-1H-pyrrolo [1,2-a]benzimidazole-5,8-dione-3-Carbamate]
antitumor activity [1]: potent antitumor agents
antitumor activity (fresh human colon tumors): potent antitumor agents
antitumor activity [2]: potent antitumor agents
antitumor activity [3]: potent antitumor agents

CC(=O)NC1=C(C)C(=O)c2c(nc3n2CCC3)C1=N [2a, syn/anti 6-Acetamido-5-imino-7-methyl-2,3-dihydro-1H-pyrrolo[1,2-a]benzimidazol-8-one]
pKa [4, 10]: < 0
pKa [4, 11]: 11.24 ± 0.01
pKa ([4]; protonated imino group (2aH^+), spectrophotometric, 30° C., μ = 1.0 (KCl)): 2.6 ± 0.3
hydrolytic stability much below pH 6 / in acid ([5]; acid, much below pH 6): rapidly hydrolyses; also recorded: rapidly hydrolyzed
pKa ([5]; acid dissociation of 2aH^+ (protonated imine), pH profile FIG. 1, read-out: pKa): ~2.5
pKa ([5]; acid dissociation of diprotonated 2a, pH profile FIG. 1, read-out: pKa): < 0
pKa ([5]; kinetically obtained, fit of equation 1, 30° C., read-out: pKa4): 3.4
hydrolytic stability below pH 6 [5]: extremely slow
k(acetate) [5, 12]: 0.0045 M⁻¹ s⁻¹
k(dibasic phosphate) [5, 12]: 0.000171 M⁻¹ s⁻¹
k(monobasic phosphate) [5, 12]: 0.000421 M⁻¹ s⁻¹
kga for acetic acid ([5]; general acid catalyzed hydrolysis, pH 3.5 to 6): 0.003 M⁻¹ s⁻¹
k3/Ka5 ([5]; hydrolysis of diprotonated 2a, fit of equation 1, 30° C.): 0.045 M⁻¹ s⁻¹
k2 (rate of water addition to 2aH^+) ([5]; hydrolysis of monoprotonated 2a, 30° C.): 0.048 s⁻¹
hydrolytic stability at pH values ≥7 ([5]; pH ≥7): hydrolytically stable
hydrolysis rate at pH 7.0 ([5]; pH=7.0, worked out from pKa and k2): 1.0×10^-6 s^-1
k1 + k-1 ([5]; syn/anti equilibration, lyate term, above pH 7, 30° C.): 1.03e-05 s⁻¹
Eo (reduction potential at pH=0) ([6]; couple 2a/19, Nernst fit): 1.11 V (NHE)
E values of syn and anti isomers ([6]; cyclic voltammetry, syn versus anti): identical E values for both isomers
reduction potential versus quinone ([6]; iminoquinone compared with quinone analogue): much higher reduction potentials
K for syn/anti isomerization ([7]; overall): ~ 1
K for syn/anti isomerization ([7]; product study): 0.7

CC(=O)Nc1c(C)c(O)c2c(nc3n2CCC3)c1N [compound 19, 6-Acetamido-5-amino-8-hydroxy-7-methyl-2,3-dihydro-1H-pyrrolo[1,2-a]benzimidazole]
pKa [4, 10]: 3.67 ± 0.16
pKa ([4]; dissociation of hydroxyl, amide and amine protons: 19^2- to 19^3-, approximated): > 15
pKa ([4]; dissociation of hydroxyl, amide and amine protons: 19^- to 19^2-, approximated): > 15
pKa ([4]; dissociation of hydroxyl, amide and amine protons: 19 to 19^-, approximated): > 15
pKa ([4]; protonated 5-amino group (19H^+), 30° C., μ = 1.0 (KCl)): 9.44
reoxidation rate relative to 20 ([8]; physiological pH): two orders of magnitude slower
fold slower oxidation than 20 ([8]; physiological pH (7.4)): about 100 ×
stability of reduced species in acid ([6]; acid solution): acid-stable

CC(=O)NC1=C(C)C(=O)c2c(nc3n2CCC3)C1=N [syn 2a, 6-Acetamido-5-imino-7-methyl-2,3-dihydro-1H-pyrrolo[1,2-a]benzimidazol-8-one]
completed hydrolysis, product by UV-visible spectra ([5]; pH 0 to pH 6): quantitative formation of 1a
K for syn/anti equilibration ([7]; dimethyl sulfoxide-d6): 15
[syn]/[anti] ratio ([7]; preparative reaction of pure syn 2a, ^1 H NMR, pH 8 phosphate buffer, 48 hours): 0.7

N#CC1=C(C#N)C(=O)C(Cl)=C(Cl)C1=O [dichlorodicyanoquinone (DDQ), dichlorodicyanoquinone]
Eo [9]: 946 mV, NHE

CC(=O)NC1=C(C)C(=O)c2c(nc3n2CCC3OC(C)=O)C1=N (racemic) [2b, syn/anti 6-Acetamido-5-imino-7-methyl-2,3-dihydro-1H-pyrrolo[1,2-a]benzimidazol-8-one-3-Acetate]
hydrolytic stability below pH 6 [5]: extremely slow

CC(=O)NC1=C(C)C(=O)c2c(nc3n2CCC3)C1=O [1a, 6-Acetamido-7-methyl-2,3-dihydro-1H-pyrrolo [1,2-a]benzimidazole-5,8-dione]
pKa [4, 10]: 1.54 ± 0.06
pKa [4, 11]: 11.3 ± 0.13
hydrolytic stability, entire pH range studied ([5]; aqueous solution, pH range -1 to 10): hydrolytically stable
Eo (reduction potential at pH=0) ([6]; couple 1a/20, Nernst fit): 612 mV (NHE)

CC(=O)Nc1c(C)c(O)c2c(nc3n2CCC3)c1O [compound 20]
pKa ([4]; 5-OH of hydroquinone, 30° C., μ = 1.0 (KCl)): 11.1
pKa ([4]; 8-OH of hydroquinone (20^- to 20^2-), 30° C., μ = 1.0 (KCl), approximated): > 14
pKa [4, 10]: 6.02 ± 0.2
pKa [4, 11]: > 14
oxidation rate above pH 7.5 ([8]; above pH 7.5): too fast to measure
oxidation rate of 20^- ([8]; assuming rate-determining oxidation of 20^-): 1566 s⁻¹
